This is an account of results in US20260209210A1, “NEW SUBSTITUTED INDOLE-2-CARBOXAMIDES AS PHGDH INHIBITORS” (Boehringer Ingelheim International GmbH, priority 2022, published 2026).

The structures appear in SMILES notation.

Data set [1] is described as follows: Drug transport across human Caco-2 cells (permeability). Type of data set: in vitro ADME. Conditions: pH 7.2, 37° C.; for efflux ratio: PEBA/PEAB, Caco-2 monolayers; for Papp A→B: apical-to-basal (absorptive) apparent permeability across Caco-2 monolayers, read-out: PEAB; for Papp B→A: basal-to-apical (secretory) apparent permeability across Caco-2 monolayers, read-out: PEBA. The method, then:
The assay provides information on the potential of a compound to pass the cell membrane, on the extent of oral absorption as well as on whether the compound is actively transported by uptake and/or efflux transporters. Permeability measurements across polarized, confluent Caco-2 cell monolayers grown on permeable filter supports are used as the in vitro absorption model. Apparent permeability coefficients (PE) of the compounds across the Caco-2 monolayers are measured (pH 7.2, 37° C.) in apical-to-basal (AB) (absorptive) and basal-to-apical (BA) (secretory) transport direction. AB permeability (PEAB) represents drug absorption from the intestine into the blood and BA permeability (PEBA) drug secretion from the blood back into the intestine via both passive permeability as well as active transport mechanisms mediated by efflux and uptake transporters that are expressed on the Caco-2 cells. The compounds are assigned to permeability/absorption classes by comparison of the AB permeabilities with the AB permeabilities of reference compounds with known in vitro permeability and oral absorption in the human. Identical or similar permeabilities in both transport directions indicate passive permeation, vectorial permeability points to additional active transport mechanisms. […] Active transport is concentration-dependently saturable.
Caco-2 cells obtained from the Leibniz Institute DSMZ-German Collection of Microorganisms and Cell Cultures GmbH (1-2×10^5 cells/1 cm^2 area) are seeded on filter inserts (Costar transwell polycarbonate or PET filters, 0.4 μm pore size) and cultured (DMEM) for 10 to 25 days. Compounds are dissolved in appropriate solvent (like DMSO, 1-20 mM stock solutions). Stock solutions are diluted with HTP-4 buffer (128.13 mM NaCl, 5.36 mM KCl, 1 mM MgSO4, 1.8 mM CaCl2), 4.17 mM NaHCO3, 1.19 mM Na2HPO4×7H2O, 0.41 mM NaH2PO4×H2O, 15 mM HEPES, 20 mM glucose, pH 7.2) containing 0.25% BSA to prepare the transport solutions (0.1-300 μM compound, final DMSO≤0.5%). The transport solution (TL) is applied to the apical or basolateral donor side for measuring A-B or B-A permeability (3 filter replicates), respectively. The receiver side contains HTP-4 buffer supplemented with 0.25% BSA. Samples are collected at the start and end of experiment from the donor and at various time intervals (0, 30, 60, and 90 minutes) for up to 2 hours also from the receiver side for concentration measurement by HPLC-MS/MS or scintillation counting. Sampled receiver volumes are replaced with fresh receiver solution. Compounds are assigned to the following permeability/oral absorption classes: • Very low: […] • Low: 1×10^−7 cm/s<PEAB<6×10^−7 cm/sec • Moderate: 6×10^−7 cm/sec<PEAB<5×10^−6 cm/sec • Good: 5×10^−6 cm/s<[…]
Compounds are classified with respect to (permeability) efflux ratios (PEBA/PEAB) given below whether they are likely to be actively transported: • no: 0.67<=ratio <=1.5 • probable (active efflux): 1.5<ratio <=2 • probable (active uptake): […] • yes (active efflux): 2<ratio • yes (active uptake): ratio <0.5

The target of a further data set is T1, PHGDH (Homo sapiens, UniProt O43175).
T1 construct: The full length version of PHGDH enzyme was expressed in BL21 (DE3) E. coli; HIS-tag (N); TEV cleavage site (N); made in house; host or cells: E. coli BL21 (DE3)
T1 sequence (O43175 1-533): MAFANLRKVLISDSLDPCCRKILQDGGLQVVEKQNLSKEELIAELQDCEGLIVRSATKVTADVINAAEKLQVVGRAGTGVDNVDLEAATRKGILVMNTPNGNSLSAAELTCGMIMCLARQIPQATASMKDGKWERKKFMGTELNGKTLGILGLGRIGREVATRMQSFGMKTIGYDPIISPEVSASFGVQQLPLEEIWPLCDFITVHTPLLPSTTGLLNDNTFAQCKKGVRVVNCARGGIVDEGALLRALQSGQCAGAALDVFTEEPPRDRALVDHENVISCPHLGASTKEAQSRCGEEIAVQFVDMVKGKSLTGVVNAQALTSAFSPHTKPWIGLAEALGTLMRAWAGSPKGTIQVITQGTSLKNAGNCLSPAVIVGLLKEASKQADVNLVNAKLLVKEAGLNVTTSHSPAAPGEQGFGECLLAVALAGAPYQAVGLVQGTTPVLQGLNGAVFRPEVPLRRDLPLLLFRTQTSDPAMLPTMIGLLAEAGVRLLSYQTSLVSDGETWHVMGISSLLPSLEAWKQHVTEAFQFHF
Description: 3-Phosphoglycerate dehydrogenase (PHGDH) Fluorescence Intensity Assay. Conditions: full length recombinant PHGDH, 500 μM NAD and 500 μM 3-PG, 240 minutes incubation, room temperature. Type of data set: biochemical. The source says: 3-Phosphoglycerate dehydrogenase (PHGDH) Fluorescence Intensity Assay This assay is used to identify compounds which inhibit the enzymatic activity of PHGDH which catalyzes the reaction of 3-Phosphoglycerate (3-PG) and NAD to 3-Phosphohydroxypyruvate and NADH.
The produced NADH is used in a coupled reaction for Diaphorase mediated reduction of Resazurin to Resorufin which can be measured in a Fluorescence Intensity readout.
The full length version of PHGDH enzyme was expressed in BL21 (DE3) E. coli through transformation with a plasmid containing the PHGDH cDNA with an N-terminal HIS-tag and a TEV cleavage site. The recombinant protein was then isolated with Ni-NTA beads and eluted on MONO Q ion exchange chromatography columns. The fractions corresponding to PHGDH were de-salted and concentrated to be used in the biochemical assay.
The 3-phosphoglycerate substrate was purchased from Sigma. NAD, Diaphorase and Resazurin were purchased from Sigma Aldrich.
Compounds are dispensed onto assay plates (black, low volume, flat bottom 384 well, Corning) using an Access Labcyte Workstation with the Labcyte Echo 55× from a DMSO solution. For the chosen highest assay concentration of 100 μM, 150 nl of compound solution are transferred from a 10 mM DMSO compound stock solution. A series of 11 concentrations (10 1:5 steps) is transferred for each compound.
DMSO is added such that every well has a total of 150 nl compound solution.
The assay has been performed using 500 μM NAD and 500 μM 3-PG (final assay concentrations).
5 μl of PHGDH protein (final assay concentration 100 ng/ml) in assay buffer (125 mM Tris-HCl, pH 7.5; 56.25 mM hydrazine sulfate pH 9.0; 2.5 mM EDTA; assay specific NAD concentration; 0.0125% Tween20) are added to the 150 nl of compounds.
10 μl of a mix containing assay specific 3-PG concentration (500 μM), Resazurin (25 µM final assay concentration) and Diaphorase (35 μg/ml final assay concentration) are added. Plates are kept at room temperature. After 240 minutes incubation time the fluorescence signal is measured in a PerkinElmer Envision HTS Multilabel Reader with an excitation wavelength at 530-560 nm and an emission wavelength at 590 nm.
Each plate contains negative controls (diluted DMSO instead of test compound; reaction as described with PHGDH protein) and positive controls (diluted DMSO instead of test compound; reaction as described with buffer instead of PHGDH protein). Negative and positive control values are used for normalization.
A known inhibitor of PHGDH activity is used as internal control.
IC50 values are calculated and analyzed in the MEGALAB IC50 application using a 4 parametric logistic model.

In general, efflux ratio refers to a quotient of directional permeabilities that is used to spot active efflux. Regarding `Cc1cc(Cl)c2cc(C(=O)N[C@H](C)c3ccc(S(=O)(=O)C4(C(=O)O)CCCC4)cc3)n(C)c2c1` [Comp-2, reference compound], in data set [1], the efflux ratio was determined as 1.8, the Papp A→B came to 0.2 ×10⁻⁶ cm/s and the Papp B→A was 0.4 ×10⁻⁶ cm/s.
In the same order, the values of `Cc1cc(Cl)c2cc(C(=O)N[C@H](C)c3ccc(S(=O)(=O)C4(C(=O)O)CC4)cc3)n(C)c2c1` [Comp-3, reference compound] are 17, 0.1 ×10⁻⁶ cm/s and 1.7 ×10⁻⁶ cm/s.
As a reminder, the IC50 is the midpoint of a concentration-inhibition curve. Consider `Cc1cc2c(cc(C(=O)N[C@H](C)c3ccc(C4(C(=O)O)CCOCC4)cc3)n2C)c(F)c1F` [Example 4], for which the IC50 at PHGDH came to 31 nM. Also, in data set [1], the efflux ratio was found to be 0.8, the Papp A→B amounted to 12 ×10⁻⁶ cm/s and the Papp B→A was determined as 9.2 ×10⁻⁶ cm/s.
Regarding `Cc1cc2c(cc(C(=O)N[C@H](C)c3ccc(C4(C(=O)O)CCOCC4)cc3)n2C)c(Cl)c1F` [Example 3], the IC50 on PHGDH was found to be 10 nM. Besides, in data set [1], the efflux ratio was determined as 0.6, the Papp A→B turned out to be 16 ×10⁻⁶ cm/s and the Papp B→A was determined as 9.1 ×10⁻⁶ cm/s.
The corresponding values for `Cc1cc2c(cc1Cl)cc(C(=O)N[C@H](C)c1ccc(C3(C(=O)O)CCOCC3)cc1)n2C` [Example 6] are 943 nM, 1.1, 7.9 ×10⁻⁶ cm/s and 8.4 ×10⁻⁶ cm/s.
On to `Cc1cc(Cl)c2cc(C(=O)N[C@H](C)c3ccc(S(=O)(=O)C4(C(=O)O)CCOCC4)cc3)n(C)c2c1` [Comp-1, reference compound], for which, in data set [1], the Papp A→B was below 0.4 ×10⁻⁶ cm/s and the Papp B→A came out at 0.2 ×10⁻⁶ cm/s.
As for `Cc1cc2c(cc(C(=O)N[C@H](C)c3ccc(C4(C(=O)O)CCOCC4)cc3)n2C)c(Cl)c1Cl` [Example 1], the IC50 at PHGDH came to 6 nM. For the same molecule, in data set [1], the efflux ratio was found to be 0.9, the Papp A→B came out at 17.1 ×10⁻⁶ cm/s and the Papp B→A is 14.6 ×10⁻⁶ cm/s.
The corresponding values for `Cc1cc2c(cc(C(=O)N[C@H](C)c3ccc(C4(C(=O)O)CCOCC4)cc3)n2C)c(F)c1Cl` [Example 2] are 27 nM, 1.2, 11 ×10⁻⁶ cm/s and 13 ×10⁻⁶ cm/s.
As to `Cc1cc(Cl)c2cc(C(=O)N[C@H](C)c3ccc(C4(C(=O)O)CCOCC4)cc3)n(C)c2c1` [Example 5], the IC50 on PHGDH was 25 nM. In data set [1], the efflux ratio came to 1.2, the Papp A→B is 10 ×10⁻⁶ cm/s and the Papp B→A was determined as 12 ×10⁻⁶ cm/s.
